≈ marks a conversion by molar mass, not a printed value. Read-outs that look alike come from different tables or passages of the source.
Tests used:
[1] = Solubility in water and oil; assay type: physicochemical
[2] = Oral administration to rats, plasma pharmacokinetics; assay type: in vivo; conditions: rat, suspension in tween 80, methylcellulose and water
Protocol: Rats: […] Three rats were administered with each dose vehicle. […] Plasma concentrations of the pharmaceutical were determined as previously described in the dog and the same pharmacokinetic parameters were determined.

[3] = biological target: HIV protease (Human immunodeficiency virus type 1 group M subtype B, UniProt P04585); assay: IC50 and IC90 pharmaceutical plasma levels
[4] = Bioavailability measured in animals; assay type: in vivo

In the case of `CC(C)CN(C[C@@H](O)[C@H](Cc1ccccc1)NC(=O)[C@H](CC(N)=O)NC(=O)c1ccc2ccccc2n1)C(=O)NC(C)(C)C` [Example 1, N^1-[3-[N^2-[[(1,1-dimethylethyl)amino]carbonyl]-N^2-(2-methylpropyl)amino]-2(R)-hydroxy-1(S)-(phenylmethyl)propyl]-2(S)-[N^3-(2-quinolinylcarbonyl)amino]butanediamide], the “dose to solubility ratio” value [1] is reported as > 75,000, the solubility ([1]; oil, oil or lipid, read-out: solubility in oil) is reported as under 1 mg/mL and the solubility ([1]; water, read-out: solubility in water) is reported as about 0.01 mg/mL (≈ 16.5 µM). It also gave a melting point of 107 to 109.8 °C, a bioavailability [2] of about 1% and an IC50 [3] of 0.0165 µM. The IC90 [3] was 0.1 mg/L (≈ 0.165 µM), the bioavailability ([4]; in vivo, normal formulation methods, read-out: bioavailability) was under 1% and the bioavailability ([4]; measured in animals, without solubilizer) was “very low”. The increase of bioavailability ([4]; utilizing a solubilizer in the dosage formulation) was 25–30 fold.

— US7226932B2, “Self-emulsifying drug delivery system” (priority 1994, dated 2007)
